Results taken from the supplement of paper PMC10307832.

Experiments:
Assay in all cases: relative viability (nuclei count vs DMSO), 5 days (fraction); higher = more cells survive
A-427 = tested on: A-427
How it was run: (§1)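 Cells from lung cancer lines were seeded into 1536-well plates and, one day later, dosed by pin tool. Treatments were either a single drug or a fixed dose of an anchor drug with five library-drug doses (not always all listed) in √10 steps. After 5 days, nuclei were stained in a one-step fixation (final 0.05% Triton X-100, 1% formaldehyde, 1 ug/ml Hoechst) and counted on 4× images, and relative viability is the treated-to-vehicle nuclei ratio, as the median of duplicate plates.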

HCC-15 = tested on: HCC-15
How it was run: as §1

HCC-78 = tested on: HCC-78
How it was run: as §1

HOP-62 = tested on: HOP-62
How it was run: as §1

LC-2-ad = tested on: LC-2-ad
How it was run: as §1

LOU-NH91 = tested on: LOU-NH91
How it was run: as §1

LXF-289 = tested on: LXF-289
How it was run: as §1

NCI-H1734 = tested on: NCI-H1734
How it was run: as §1

NCI-H1755 = tested on: NCI-H1755
How it was run: as §1

NCI-H1915 = tested on: NCI-H1915
How it was run: as §1

NCI-H1975 = tested on: NCI-H1975
How it was run: as §1

NCI-H2126 = tested on: NCI-H2126
How it was run: as §1

NCI-H2228 = tested on: NCI-H2228
How it was run: as §1

NCI-H2342 = tested on: NCI-H2342
How it was run: as §1

NCI-H2347 = tested on: NCI-H2347
How it was run: as §1

NCI-H358 = tested on: NCI-H358
How it was run: as §1

NCI-H460 = tested on: NCI-H460
How it was run: as §1

NCI-H647 = tested on: NCI-H647
How it was run: as §1

PC-3 [JPC-3] = tested on: PC-3 [JPC-3]
How it was run: as §1

RERF-LC-KJ = tested on: RERF-LC-KJ
How it was run: as §1

SK-LU-1 = tested on: SK-LU-1
How it was run: as §1

SW 1573 = tested on: SW 1573
How it was run: as §1

Oc1nc(-c2ccc(C(F)(F)F)cc2)nc2c1CSCC2 [XAV939] + Cc1cc(Nc2cc(N3CCN(C)CC3)nc(Sc3ccc(NC(=O)C4CC4)cc3)n2)n[nH]1 [Tozasertib] (partner 0.1 µM)
relative viability (A-427; first compound 0.08 µM): 0.238
relative viability (A-427; first compound 0.253 µM): 0.164
relative viability (A-427; first compound 0.8 µM): 0.19
relative viability (A-427; first compound 2.53 µM): 0.193
relative viability (HCC-15; first compound 0.08 µM): 0.452
relative viability (HCC-15; first compound 0.253 µM): 0.382
relative viability (HCC-15; first compound 0.8 µM): 0.394
relative viability (HCC-15; first compound 2.53 µM): 0.368
relative viability (HCC-78; first compound 0.08 µM): 0.558
relative viability (HCC-78; first compound 0.253 µM): 0.373
relative viability (HCC-78; first compound 0.8 µM): 0.531
relative viability (HCC-78; first compound 2.53 µM): 0.368
relative viability (HOP-62; first compound 0.08 µM): 0.372
relative viability (HOP-62; first compound 0.253 µM): 0.339
relative viability (HOP-62; first compound 0.8 µM): 0.338
relative viability (HOP-62; first compound 2.53 µM): 0.329
relative viability (LC-2-ad; first compound 0.08 µM): 0.481
relative viability (LC-2-ad; first compound 0.253 µM): 0.446
relative viability (LC-2-ad; first compound 0.8 µM): 0.488
relative viability (LC-2-ad; first compound 2.53 µM): 0.381
relative viability (LOU-NH91; first compound 0.08 µM): 0.655
relative viability (LOU-NH91; first compound 0.253 µM): 0.663
relative viability (LOU-NH91; first compound 0.8 µM): 0.637
relative viability (LOU-NH91; first compound 2.53 µM): 0.695
relative viability (LXF-289; first compound 0.08 µM): 0.215
relative viability (LXF-289; first compound 0.253 µM): 0.187
relative viability (LXF-289; first compound 0.8 µM): 0.161
relative viability (LXF-289; first compound 2.53 µM): 0.111
relative viability (NCI-H1734; first compound 0.08 µM): 0.243
relative viability (NCI-H1734; first compound 0.253 µM): 0.206
relative viability (NCI-H1734; first compound 0.8 µM): 0.261
relative viability (NCI-H1734; first compound 2.53 µM): 0.293
relative viability (NCI-H1755; first compound 0.08 µM): 0.575
relative viability (NCI-H1755; first compound 0.253 µM): 0.518
relative viability (NCI-H1755; first compound 0.8 µM): 0.587
relative viability (NCI-H1755; first compound 2.53 µM): 0.481
relative viability (NCI-H1915; first compound 0.08 µM): 0.5
relative viability (NCI-H1915; first compound 0.253 µM): 0.444
relative viability (NCI-H1915; first compound 0.8 µM): 0.416
relative viability (NCI-H1915; first compound 2.53 µM): 0.43
relative viability (NCI-H1975; first compound 0.08 µM): 0.729
relative viability (NCI-H1975; first compound 0.253 µM): 0.736
relative viability (NCI-H1975; first compound 0.8 µM): 0.683
relative viability (NCI-H1975; first compound 2.53 µM): 0.514
relative viability (NCI-H2126; first compound 0.08 µM): 0.791
relative viability (NCI-H2126; first compound 0.253 µM): 0.774
relative viability (NCI-H2126; first compound 0.8 µM): 0.778
relative viability (NCI-H2126; first compound 2.53 µM): 0.651
relative viability (NCI-H2228; first compound 0.08 µM): 0.31
relative viability (NCI-H2228; first compound 0.253 µM): 0.23
relative viability (NCI-H2228; first compound 0.8 µM): 0.247
relative viability (NCI-H2228; first compound 2.53 µM): 0.255
relative viability (NCI-H2342; first compound 0.08 µM): 0.592
relative viability (NCI-H2342; first compound 0.253 µM): 0.511
relative viability (NCI-H2342; first compound 0.8 µM): 0.419
relative viability (NCI-H2342; first compound 2.53 µM): 0.301
relative viability (NCI-H2347; first compound 0.08 µM): 0.613
relative viability (NCI-H2347; first compound 2.53 µM): 0.388
relative viability (NCI-H358; first compound 0.08 µM): 0.112
relative viability (NCI-H358; first compound 0.253 µM): 0.0945
relative viability (NCI-H358; first compound 0.8 µM): 0.0995
relative viability (NCI-H358; first compound 2.53 µM): 0.0987
relative viability (NCI-H460; first compound 0.08 µM): 0.587
relative viability (NCI-H460; first compound 0.253 µM): 0.392
relative viability (NCI-H460; first compound 0.8 µM): 0.45
relative viability (NCI-H460; first compound 2.53 µM): 0.289
relative viability (NCI-H647; first compound 0.08 µM): 0.288
relative viability (NCI-H647; first compound 0.253 µM): 0.217
relative viability (NCI-H647; first compound 0.8 µM): 0.262
relative viability (NCI-H647; first compound 2.53 µM): 0.146
relative viability (PC-3 [JPC-3]; first compound 0.08 µM): 0.901
relative viability (PC-3 [JPC-3]; first compound 0.253 µM): 0.833
relative viability (PC-3 [JPC-3]; first compound 0.8 µM): 0.857
relative viability (PC-3 [JPC-3]; first compound 2.53 µM): 0.744
relative viability (RERF-LC-KJ; first compound 0.08 µM): 0.546
relative viability (RERF-LC-KJ; first compound 0.253 µM): 0.465
relative viability (RERF-LC-KJ; first compound 0.8 µM): 0.462
relative viability (RERF-LC-KJ; first compound 2.53 µM): 0.409
relative viability (SK-LU-1; first compound 0.08 µM): 0.35
relative viability (SK-LU-1; first compound 0.253 µM): 0.267
relative viability (SK-LU-1; first compound 0.8 µM): 0.322
relative viability (SK-LU-1; first compound 2.53 µM): 0.279
relative viability (SW 1573; first compound 0.08 µM): 0.174
relative viability (SW 1573; first compound 0.253 µM): 0.139
relative viability (SW 1573; first compound 0.8 µM): 0.211
relative viability (SW 1573; first compound 2.53 µM): 0.213
